Legend:
[1] = molecular target: T1, Smo receptor (Homo sapiens, UniProt Q99835); assay: Bodipy-Cyclopamine specific binding curve, Smo-FLAG transfected cell line clone 3-5; conditions: stable Smo-FLAG transfected cell line clone 3-5
T1 construct: expressed in transfected cells; template pCMV6-XL5-Smo, Origene cat; TC122724

[2] = test system: 293FlpIN/clone E-3 mock transfected cells; assay: Bodipy-Cyclopamine specific binding curve, mock transfected cell line clone E-3; conditions: stable mock transfected cell line clone E-3

T1 sequence (Q99835 28-787): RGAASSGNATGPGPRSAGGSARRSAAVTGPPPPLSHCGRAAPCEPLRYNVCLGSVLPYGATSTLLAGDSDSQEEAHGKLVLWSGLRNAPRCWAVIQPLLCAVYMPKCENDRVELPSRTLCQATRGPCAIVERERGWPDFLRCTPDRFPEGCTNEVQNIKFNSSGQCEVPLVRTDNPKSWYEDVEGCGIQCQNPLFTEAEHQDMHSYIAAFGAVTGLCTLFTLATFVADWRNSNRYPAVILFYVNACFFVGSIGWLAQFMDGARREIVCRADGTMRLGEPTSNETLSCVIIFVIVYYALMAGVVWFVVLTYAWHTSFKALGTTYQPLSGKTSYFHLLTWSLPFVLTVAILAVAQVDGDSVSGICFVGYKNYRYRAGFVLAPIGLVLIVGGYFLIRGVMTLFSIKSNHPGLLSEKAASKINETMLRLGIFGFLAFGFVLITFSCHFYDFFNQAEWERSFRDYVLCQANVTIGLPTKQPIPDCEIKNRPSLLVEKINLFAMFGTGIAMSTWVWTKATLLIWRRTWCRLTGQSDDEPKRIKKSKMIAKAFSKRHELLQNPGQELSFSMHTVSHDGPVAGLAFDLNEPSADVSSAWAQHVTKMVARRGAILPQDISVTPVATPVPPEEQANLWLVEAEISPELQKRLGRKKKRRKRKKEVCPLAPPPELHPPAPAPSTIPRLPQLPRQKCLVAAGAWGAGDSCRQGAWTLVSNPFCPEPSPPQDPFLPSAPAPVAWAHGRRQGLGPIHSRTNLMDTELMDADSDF

In the case of `CC1=C2CC3C(CC=C4C[C@@H](O)CCC43C)C2CCC12O[C@@H]1CC(C)CN(CCNC(=O)CCCCCNC(=O)CCC3=[N+]4C(=Cc5c(C)cc(C)n5[B-]4(F)F)C=C3)C1C2C` (some centres unmarked) [Bodipy-Cyclopamine], the Kd [1] is reported as 44.3 nM and the Kd [2] is reported as 115 nM.

— patent publication US8835648B2, “Hedgehog pathway antagonists and therapeutic applications thereof” (Siena Biotech S.p.A., priority 2009, dated 2014)
